Read-outs that look alike come from different tables or passages of the source.
Experiments:
[1] = tested on: NCI-H460 cells; assay: Antiproliferation assay - oxygen dependence; assay type: cell-based, human; conditions: Homo sapiens
Excerpt: . […] The calculated IC50 values (μM) are tabulated in Table Y1 (H460 cells) or Table Y2 (HT29 cells) below.

[2] = assay type: physicochemical; conditions: glassy carbon, Ag/AgCl reference
[3] = logP (partitioning between octanol and water); assay type: physicochemical; conditions: logP
Excerpt: As used herein “LogP” means a measure of lipophilicity of a substance determined based on the partitioning of the substance betwen octanol and water.

[4] = tested on: NCI H460 xenograft; assay type: in vivo, mouse; conditions: day 27, vs vehicle
Excerpt: Comparisons were made on day 27 because that was the last day of measurements for the vehicle group and those animals were sacrificed.

[5] = tested on: HT29 xenograft; assay: HT-29 human colon carcinoma xenograft mouse model (Example 50); assay type: in vivo
Procedure: Female CB17/SCID mice (purchased from Charles River, Cambridge, Mass.), 7-8 weeks of age, were allowed to acclimatize for at least three days, and handled under pathogen-free conditions. Human colon carcinoma cell line HT29 was obtained from the American Type Culture Collection. The cell lines were cultured and harvested as described in Example 47 above, and inoculated at 3×10^6 cells/animal in the peritoneal subcutaneous space. […]; in saline) on the days the combination therapy was scheduled; 5FU alone (in saline), or CDDP alone.
In control groups, tumors were implanted in two locations as part of a separate study of effect of location on control group tumor growth. […] The body weight and tumor volume were measured as described in Example 47. Tumor growth inhibition measured on day 25 when vehicle tumors had reached the maximal size and animals in that group were sacrificed is tabulated below.

[6] = in vivo; conditions: CD-1, mouse, ip, 50 mg/kg
[7] = tested on: H460 lung carcinoma spheroids; assay: Spheroid model, clonogenic survival; conditions: Homo sapiens, NCI-H460, 2 h, read-out: IC90 H460 Spheroid 10% O2
[8] = tested on: NCI-H460 cells; assay: Clonogenic assay - oxygen dependence; conditions: Homo sapiens
[9] = tested on: H460 cells exposed as monolayers; assay: Clonogenic survival of monolayer cells (Example 35); conditions: Homo sapiens, NCI-H460, 2 h
[10] = tested on: NCI-H460 cells; assay: Antiproliferation assay (Alamar Blue), anoxia vs air; conditions: Homo sapiens, NCI-H460, 2 h
[11] = tested on: MES-SA cells; assay: as above; conditions: Homo sapiens, 2 h
[12] = tested on: MES-SA/Dx5 cells; assay: as above; conditions: Homo sapiens, MES-SA/Dx5, 2 h
[13] = tested on: H460 cell line; assay: Anti-proliferation assay, hypoxia vs normoxia (Table 1A); conditions: for IC50: Homo sapiens; for HCR P: ratio of IC50 in normoxia and hypoxia
[14] = tested on: mouse (MLM) liver microsomal proteins; assay type: in vitro ADME; conditions: for Metabolic stability (MLM) (% at 30 min): Table 2B
[15] = MTD (Table 2B); conditions: in vivo
[16] = Plasma stability (Table 2B); conditions: 30 min
[17] = tested on: HT29 cells; assay: Antiproliferation assay (Alamar Blue), anoxia vs air; conditions: Homo sapiens, HT-29, 2 h
[18] = tested on: HT29; assay: Anti-proliferation assay, hypoxia vs normoxia (Table 1B); conditions: for IC50: Homo sapiens
[19] = tested on: DX-5; assay: as above
[20] = tested on: NCI H460 xenograft; assay: NCI H460 non small cell lung carcinoma xenograft mouse model (Example 48); assay type: in vivo; conditions: Group 6: Taxol (q2d × 3)/week × 2 weeks; day 29; vs vehicle
Procedure: Female CB17/SCID mice (purchased from Charles River, Cambridge, Mass.), 7-8 weeks of age, were allowed to acclimatize for at least three days, and handled under pathogen-free conditions. Human […] cell line NCI H460 was obtained from the American Type Culture Collection. The cell lines were cultured and harvested according to the procedure described in Example 47 and inoculated at 1×10^6 cells/animal in the peritoneal subcutaneous space. When the tumors grew to an average volume of 100 mm^3 (day 8), […], as tabulated in the table below: Compound 25 (2.5 mg/ml in 10% PEG; administration route—i.p.) and Taxol (1 mg/ml in 5% EtOH, 5% Cremophor and 90% saline; administration—i.v. 2 h after administration of Compound 25). The body weight and tumor volumes were measured as described in Example 47 above.
Results are presented in Table X2 based on tumor volume measurement on day 29 when vehicle treated mice had reached a volume of 946 mm^3. Groups of 5 mice receiving saline or no treatment were added in order to indicate any vehicle effects but are not used for comparisons in this analysis.

[21] = tested on: human (HLM) liver microsomal proteins; assay: Metabolic stability in liver microsomal protein; assay type: in vitro ADME; conditions: Table 2A, second study, 5 μM
[22] = tested on: rat (RLM) liver microsomal proteins; assay: Metabolic stability in liver microsomal protein; assay type: in vitro ADME; conditions: 5 μM
[23] = in vivo
[24] = read-out: IC50 H460 Air, air, 2 h exposure
[25] = read-out: IC50 H460 Anoxia, anoxia, 2 h exposure
[26] = read-out: IC50 MES-SA/Dx5 Anoxia
[27] = NCI-H460, read-out: Hypoxia P (proliferation IC50)
[28] = NCI-H460, read-out: Normoxia P (proliferation IC50)
[29] = HT-29, read-out: HT29 P H (proliferation IC50, hypoxia)
[30] = HT-29, read-out: HT29 P N (proliferation IC50, normoxic)
[31] = read-out: DX-5 P H (proliferation IC50, hypoxia)
[32] = read-out: DX-5 P N (proliferation IC50, normoxic)

Structure (SMILES): O=[N+]([O-])c1ccc(COP(=O)(NCCBr)NCCBr)o1 [Compound 24]
- IC50 ([1]; NCI-H460, read-out: IC50 in H460 cells, 0.6% O2): 850 nM
- IC50 ([1]; NCI-H460, read-out: IC50 in H460 cells, Air): > 1000 nM
- IC50 ([1]; NCI-H460, read-out: IC50 in H460 cells, N2): 7 nM
- Reduction Potentials, 100 mV/sec ([2]; scan rate 100 mV/sec): −568 mV
- Reduction Potentials, 10,000 mV/sec ([2]; scan rate 10,000 mV/sec): −636 mV
- logP [3]: < 0
- % Inhibition vs Group 1 ([4]; Group 3: Compound 24 3 mg/kg (q1d × 5 d)/week × 3 week): 39.9%
- tumor growth inhibition, monotherapy [5]: more than 40%
- body weight ([5]; during treatment, recovered after end of treatment): minor decreases in weights
- AUC [6]: 64000 ng·h/mL
- Cmax [6]: 7600 ng/mL
- Tmax [6]: 5 min
- half-life [6]: 4.1 min
- IC90 [7]: 3000 nM
- IC90 ([8]; NCI-H460, read-out: IC90 H460 0.6% O2): 250 nM
- IC90 ([8]; NCI-H460, read-out: IC90 H460 Air): 14000 nM
- IC90 ([8]; NCI-H460, read-out: IC90 H460 N2): 70 nM
- IC90 ([9]; read-out: IC90 H460 Monolayer 0.6% O2): 250 nM
- IC90 ([9]; read-out: IC90 H460 Monolayer Air): 4000 nM
- IC90 ([9]; read-out: IC90 H460 Monolayer N2): 70 nM
- IC50 [10, 24]: 4000 nM
- IC50 [10, 25]: 10 nM
- IC50 ([11]; read-out: IC50 MES-SA Air): 2000 nM
- IC50 ([11]; read-out: IC50 MES-SA Anoxia): 100 nM
- IC50 ([12]; read-out: IC50 MES-SA/Dx5 Air): 800 nM
- IC50 [12, 26]: 100 nM
- IC50 [13, 27]: 10 nM
- IC50 ([13]; NCI-H460, read-out: IC50 in cells under hypoxia): 50 nM
- IC50 [13, 28]: 4000 nM
- fold more toxic in hypoxic cells than in normoxic cells ([13]; anti-proliferation cytotoxicity assay): 400 fold
- HCR P [13]: 400

Structure (SMILES): Cn1c(COP(=O)(N(CCCl)CCCl)N(CCCl)CCCl)cnc1[N+](=O)[O-] [Compound 6]
- Metabolic stability (MLM) (% at 30 min) [14]: 0%
- MTD [15]: 250 mg/kg
- Plasma stability (% at 30 min) [16]: 60%
- IC50 [10, 24]: > 100000 nM
- IC50 [10, 25]: 700 nM
- IC50 ([17]; read-out: IC50 HT29 Air): > 100000 nM
- IC50 ([17]; read-out: IC50 HT29 Anoxia): 22000 nM
- IC50 ([12]; read-out: IC50 MES-SA/Dx5 Air): > 100000 nM
- IC50 [12, 26]: 5000 nM
- IC50 [13, 27]: 700 nM
- IC50 [13, 28]: > 100000 nM
- HCR P [13]: >140
- HT29 HCR P [18]: >2
- IC50 [18, 29]: 55000 nM
- IC50 [18, 30]: > 100000 nM
- DX-5 HCR [19]: >20
- IC50 [19, 31]: 5000 nM
- IC50 [19, 32]: > 100000 nM

Structure (SMILES): CC(=O)O[C@H]1C(=O)[C@@]2(C)[C@H]([C@H](OC(=O)c3ccccc3)[C@]3(O)C[C@H](OC(=O)[C@H](O)[C@@H](NC(=O)c4ccccc4)c4ccccc4)C(C)=C1C3(C)C)[C@]1(OC(C)=O)CO[C@@H]1C[C@@H]2O [Taxol, paclitaxel, reference compound]
- % Inhibition vs Group 2 [20]: 46%
- % Inhibition vs Group 1 ([4]; Group 2: Taxol 10 mg/kg (q2d × 3)/week × 2 week): 36.7%

Structure (SMILES): C[C@]12CC[C@H]3[C@@H](CCC4=CC(=O)CC[C@@]43C)[C@@H]1CC[C@@H]2O [Testosterone, reference compound]
- Metabolic stability (% at 30 min) HLM [21]: 65%
- Metabolic stability (% at 30 min) RLM ([22]; Table 1, first study): 0%
- Metabolic stability (% at 30 min) RLM ([22]; Table 2A, second study): 33%
- Metabolic stability (% at 30 min) MLM ([14]; Table 1, first study, 5 μM): 6%

Structure (SMILES): Cn1c(COP(=O)(N(CCCl)C2CC2)N(CCCl)C2CC2)cnc1[N+](=O)[O-] [Compound 7]
- Metabolic stability (MLM) (% at 30 min) [14]: 0%
- MTD [23]: 250 mg/kg
- Plasma stability (% at 30 min) [16]: 85%
- IC50 [10, 24]: 25000 nM
- IC50 [10, 25]: 140 nM
- IC50 ([17]; read-out: IC50 HT29 Air): > 100000 nM
- IC50 ([17]; read-out: IC50 HT29 Anoxia): 7000 nM
- IC50 ([12]; read-out: IC50 MES-SA/Dx5 Air): 83000 nM
- IC50 [12, 26]: 590 nM
- IC50 [13, 27]: 140 nM
- IC50 [13, 28]: 25000 nM
- HCR P [13]: 180
- HT29 HCR P [18]: >5
- IC50 [18, 29]: 7000 nM
- IC50 ([18]; HT-29, read-out: HT29 P H, value in parentheses): 100000 nM
- IC50 [18, 30]: > 100000 nM
- HT29 HCR P, value in parentheses ([18]; parentheses not explained): (1)
- DX-5 HCR [19]: 140
- IC50 [19, 31]: 600 nM
- IC50 [19, 32]: 83000 nM

From US8507464B2, “Phosphoramidate alkylator prodrugs” (Threshold Pharmaceuticals, Inc., priority 2005, dated 2013)
